Reference: paper PMC8221158, “Novel pyrrolizines bearing 3,4,5-trimethoxyphenyl moiety: design, synthesis, molecular docking, and biological evaluation as potential multi-target cytotoxic agents” (Journal of Enzyme Inhibition and Medicinal Chemistry, 2021)
Values joined by “and” are separate entries in the source; they are usually repeats but may differ in a detail not shown here. Identical values can stand only once.

What was measured:
CDK-2 = biological target: T1, CDK-2 (Homo sapiens, UniProt P24941); experiment: CDK-2 inhibitory assay (ADP-Glo); format: biochemical; settings: three determinations, read-out: IC50 (μM) ± SEM CDK-2
T1 construct: purchased Promega, Madison, WI
Description: The assay was done according to the manufacturer’s instructions and as described in the previous report[21].

MCF-7 cells [1] = experiment: Annexin V-FITC/PI apoptosis assay; format: cell-based, human; settings: 0.1 μM, 24 h; for % Cell number, Early apoptosis / % Cell number, Late apoptosis / % Cell number, Live cells / % Cell number, Necrosis: n = 3
Procedure: The ability of compounds 16a,b,d to induce apoptotic changes in MCF-7 cells was determined by Annexin V-FITC/PI staining according to the previous report[13]^,[18]^,[19]. Additionally, the morphological changes in MCF-7 cells were examined by microscope. Following treatment with the test compounds at 0.1 µM for 24 h, the cells were stained with annexin V and PI. The determination of necrotic, early/late apoptotic changes were performed by flow cytometer (FC500, Beckman Coulter, Miami, FL).
The cytotoxic activity of our previously reported pyrrolizine-5-carboxamide 9a was mediated by the induction of apoptosis in MCF-7 cells[13]^,[19]. […] The cancer cells were treated with the test compounds (0.1 μM) for 24 h. The induction of apoptosis in MCF-7 cells by the selected compounds was investigated using annexin V fluorescein isothiocyanate (FITC)/propidium iodide (PI) staining assay. The assay procedures were the same as those applied in the previous report. Compound 16a increased apoptosis (early and late events) in MCF-7 cells to 19% compared to 1% in the control. Moreover, compound 16b caused a significant increase of MCF-7 apoptotic cells which was similar to the effect of compound 16a.

MCF-7/ADR cells = experiment: MTT assay, doxorubicin-resistant cells; format: cell-based; settings: Homo sapiens, NCI/ADR-RES, 72 h treatment, n = 3, read-out: IC50 (µM ± SD) MCF-7/ADR
Procedure: MCF-7 (human breast adenocarcinoma), A2780 (human ovarian cancer) and HCT116 (human colorectal carcinoma), and MRC-5 (normal foetal lung fibroblast) cell lines were bought from the ATCC and were cultured in flasks which were incubated at 37 °C in an atmosphere of 5% CO2, 95% air, and 100% relative humidity, to maintain continuous logarithmic growth. MCF-7, A2780, and HCT116 were maintained in RPMI-1640 media (100 U/mL penicillin, 100 µg/mL streptomycin, and 10% foetal bovine serum, Gibco, Carlsbad, CA). MRC-5 cells were maintained in EMEM (100 U/mL penicillin, 100 µg/mL streptomycin, and 10% foetal bovine serum, Gibco, Carlsbad, CA). Doxorubicin (5 μg/mL, for three months) added for RPMI-1640 media containing MCF7 cells was used to develop doxorubicin-resistant MCF7/ADR cells. All cancer and normal cell lines were cultured according to our previous report. Cells were used within 10–20 passages and were checked for mycoplasma every 6 months, by measuring the bioluminescence (Myco Alert sample detection kit; Lonza, Basel, Switzerland) using the multiplate reader (Synergy HT, BioTek, Winooski, VT).
The MTT assay was used to measure the cytotoxicity and growth inhibitory activities and cytotoxicity of the new compounds according to our previous report[13]^,[17]. Cells from flasks of 70–80% confluency were separately seeded in 96-well flat-bottom microculture plates (Nalgene-Nunc, Thermo Fisher Scientific, Roskilde, Denmark) at a density of 3 × 10^3 cells (MCF-7, A2780, and MRC-5), 1 × 10^4 cells (HCT116), to a volume of 180 μL/well of culture medium. A Neubauer haemocytometer was used for cell counting. Cells were incubated at 37 °C overnight to allow attachment to the wells. The final concentrations of each compound in wells were: 0–50 μM in 200 μL of media (DMSO 0.1%). Lapatinib (Cayman, Ann Arbor, MI) was used as a positive control at the same final concentrations. […] Cytotoxicity of the new compounds was calculated after treatment of cancer/normal cell lines for 72 h. The absorbance of the reduced MTT was determined using a microplate reader A570 nm. […]

EGFR = EGFR (Homo sapiens, UniProt P00533); experiment: Kinase profiling test; format: biochemical; settings: stated as inhibition, read-out: inhibition% against EGFR
EGFR, sequence (P00533 25-1210): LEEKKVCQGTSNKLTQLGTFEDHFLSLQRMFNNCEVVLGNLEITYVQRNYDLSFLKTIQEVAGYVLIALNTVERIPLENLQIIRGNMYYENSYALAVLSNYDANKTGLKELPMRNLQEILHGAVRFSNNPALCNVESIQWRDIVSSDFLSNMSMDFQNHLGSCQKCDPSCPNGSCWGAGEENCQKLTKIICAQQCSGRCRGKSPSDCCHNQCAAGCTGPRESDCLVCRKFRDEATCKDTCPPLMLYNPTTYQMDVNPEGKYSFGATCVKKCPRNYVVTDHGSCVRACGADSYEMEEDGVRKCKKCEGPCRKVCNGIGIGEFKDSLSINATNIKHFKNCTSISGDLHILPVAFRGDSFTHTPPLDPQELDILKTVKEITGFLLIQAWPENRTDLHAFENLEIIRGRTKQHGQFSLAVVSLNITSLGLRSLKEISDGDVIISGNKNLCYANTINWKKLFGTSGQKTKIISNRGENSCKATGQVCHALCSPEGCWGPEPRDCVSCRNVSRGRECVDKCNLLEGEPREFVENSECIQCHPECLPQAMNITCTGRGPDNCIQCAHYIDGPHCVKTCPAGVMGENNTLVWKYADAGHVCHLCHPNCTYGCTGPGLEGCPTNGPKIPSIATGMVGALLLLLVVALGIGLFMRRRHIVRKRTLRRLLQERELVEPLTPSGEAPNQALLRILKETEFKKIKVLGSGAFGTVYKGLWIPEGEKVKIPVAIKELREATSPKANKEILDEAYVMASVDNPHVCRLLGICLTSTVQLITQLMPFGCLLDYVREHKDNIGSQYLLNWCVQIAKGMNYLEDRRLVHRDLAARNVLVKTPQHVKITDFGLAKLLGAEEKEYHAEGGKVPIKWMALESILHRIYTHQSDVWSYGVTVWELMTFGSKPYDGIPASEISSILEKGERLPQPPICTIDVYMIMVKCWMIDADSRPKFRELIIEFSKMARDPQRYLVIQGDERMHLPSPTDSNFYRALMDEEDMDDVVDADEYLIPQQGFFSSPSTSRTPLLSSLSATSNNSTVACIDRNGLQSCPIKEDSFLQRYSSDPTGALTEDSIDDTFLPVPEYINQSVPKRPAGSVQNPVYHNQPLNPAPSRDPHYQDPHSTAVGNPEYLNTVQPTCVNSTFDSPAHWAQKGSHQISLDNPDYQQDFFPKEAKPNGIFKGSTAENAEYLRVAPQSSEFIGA
Procedure: The test was performed using the radiolabeled ATP determination method (KINEXUS Bioinformatics Corporation, Vancouver, Canada). The test was performed following the previous reports[13]^,[20].
The three compounds were tested at the same concentration (10 μM) against the same 20 kinases used in the previous report. The test was performed by KINEXUS Bioinformatics Corporation (Vancouver, Canada), following previous reports[13]^,[20].

MCF-7 cells [2] = experiment: Cell cycle analysis (flow cytometry); format: cell-based, human; settings: 0.1 μM, 24 h
Procedure: Cell cycle perturbations of MCF-7 cells treated with compounds 16a,b,d at 0.1 µM concentration for 24 h was determined using FC500 flow cytometer (FC500, Beckman Coulter, Miami, FL). The cell cycle analysis was performed according to our previous report.
Based on the results of the MTT assay (Table 1), compounds 16a,b,d were selected to investigate their effect on cell cycle phases of MCF-7 cells. The cancer cells were treated with the test compounds at 0.1 μM and vehicle (control) for 24 h according to the previous report. Cell cycle analysis was performed using FC500 flow cytometer (FC500, Beckman Coulter, Miami, FL). […] On the other hand, the S phase was the least affected with less than a twofold decrease.

[3] = test system: microtubule cytoskeleton of MCF-7 cells; experiment: Immunofluorescence staining of microtubules; format: cell-based, human; settings: 5 μM, 24 h

Row | IC50 (CDK-2) | IC50 (MCF-7/ADR cells) | inhibition at 10 µM (EGFR) | SMILES | % Cell number, Early apoptosis (MCF-7 cells [1]) | % Cell number, Late apoptosis (MCF-7 cells [1]) | % Cell number, Live cells (MCF-7 cells [1]) | % Cell number, Necrosis (MCF-7 cells [1]) | apoptosis (early and late events) (MCF-7 cells [1]; control 1%) | Cell cycle stage % G1 (MCF-7 cells [2]) | Cell cycle stage % G2/M (MCF-7 cells [2]) | Cell cycle stage % S (MCF-7 cells [2]) | Cell cycle stage % preG1 (MCF-7 cells [2]) | effect on cellular microtubules [3]
1 | 0.086 ± 0.016 µM | 1.57 ± 0.04 µM | 30% | COc1cc(C(=O)Nc2c(C#N)c3n(c2C(=O)Nc2ccccc2)CCC3)cc(OC)c1OC [16a, 7-Cyano-N-phenyl-6-(3,4,5-trimethoxybenzamido)-2,3-dihydro-1H-pyrrolizine-5-carboxamide] | 8.40 ± 0.87% | 10.70 ± 1.06% | 77.40 ± 1.39% | 3.50% and 3.50 ± 0.37% | 19% | 10.69 ± 1.32% | 37.38 ± 4.66% | 25.93 ± 3.47% | 26.92 ± 3.07% | –
2 | 0.265 ± 0.021 µM | 6.26 ± 0.71 µM | 11% | COc1cc(C(=O)Nc2c(C#N)c3n(c2C(=O)Nc2ccc(C)cc2)CCC3)cc(OC)c1OC [16b, 7-Cyano-N-(p-tolyl)-6-(3,4,5-trimethoxybenzamido)-2,3-dihydro-1H-pyrrolizine-5-carboxamide] | 6.22 ± 0.22% | 13.01 ± 1.02% | 75.00 ± 2.90% | 7.11% and 7.11 ± 0.80% | – | 13.19 ± 2.95% | 35.35 ± 4.19% | 28.46 ± 2.79% | 22.43 ± 2.24% | shrank and partially disorganised microtubules which split partially into fragments
3 | 0.113 ± 0.017 µM | 0.52 ± 0.066 µM | – | COc1cc(C(=O)Nc2c(C#N)c3n(c2C(=O)Nc2ccc(Cl)cc2)CCC3)cc(OC)c1OC [16d, N-(4-Chlorophenyl)-7-cyano-6-(3,4,5-trimethoxybenzamido) -2,3-dihydro-1H-pyrrolizine-5-carboxamide] | 7.50 ± 0.95% | 19.94 ± 1.30% | 71.99 ± 2.88% | 2.51% and 2.51 ± 0.45% | – | 5.46 ± 0.87% | 45.62% and 45.62 ± 5.25% | 24.92 ± 2.22% | 27.56% and 27.56 ± 3.93% | –
